In patent US20200157637A1, “TARGETING OF ANAPLASTIC LYMPHOMA KINASE IN SQUAMOUS CELL CARCINOMA” (BOARD OF REGENTS, THE UNIVERSITY OF TEXAS SYSTEM, priority 2017, published 2020):
“Also recorded” adds a separate entry of the source.

What was measured:
oral cancer patients = settings: cited from earlier work
Cal27 cells = experiment: Flow cytometry cell cycle analysis (PI staining), Cal27; type: cell-based, Human; settings: 500 nM each, 30 hr
From the text: (§1) Flow cytometry. […] Cells were harvested, fixed in 70% EtoH, treated with RNase A, and stained with propidium iodide (PI).

HSC3 cells [1] = experiment: Flow cytometry cell cycle analysis (PI staining), HSC3; type: cell-based, Human; settings: 500 nM each, 30 hr
From the text: as §1

HSC3 mouse xenografts = experiment: OSCC mouse xenograft model (HSC3-derived tumors); type: in vivo
Experimental: OSCC mouse xenograft models. All studies were approved by the UTHSCSA institutional Animal Care and Use Committee. Six week-old female athymic nude mice (Harlan, Indianapolis, […].) were used in a laminar air-flow cabinet under pathogen-free conditions. Mice were provided with a 12 h light/dark schedule at controlled temperature and humidity with food and water ad libitum. Mice were acclimated for one week prior to study initiation. Mice were injected subcutaneously in the right flank with 3×10^6 HSC3 cells in 0.1 ml of sterile PBS. […] Treatments were repeated every day for a total of 14 days. Mice were monitored daily for tumor growth (using digital calipers), cachexia, and weight loss. Tumor volumes were calculated by the elliptical formula: ½ (Length×Width^2) (Jensen et al., 2008). At experimental conclusion, tumors were fixed and processed for histological analysis. Hematoxylin and eosin (H&E) staining and IHC studies were performed by the UTHSCSA Cancer Therapy and Research Center (CTRC) core pathology laboratory.

HSC3 cells [2] = experiment: Cell viability assay, HSC3; type: cell-based, Human; settings: 500 nM each, 48, 72 and 96 h
Experimental: (§2) Cell viability assays. Cytotoxicity was assessed using the Cell Titer 96 Aqueous Non-Radioactive Cell Proliferation Assay (Promega, Madison, Wis.) according to manufacturer's protocol. Absorbance values of test groups were normalized against controls (n=4).

Ca127 cells [3] = experiment: Cell viability assay, Ca127; type: cell-based, Human; settings: 500 nM each, 48, 72 and 96 h
Experimental: as §2

HSC3 cells [4] = experiment: Cell migration (IncuCyte wound-healing) assay, HSC3; type: cell-based, Human; settings: 500 nM each
Experimental: (§3) Cell migration assay. Cellular migration was performed using the IncuCyte ZOOM™ live cell image device (Essen Bioscience). After achieving cell confluence in 96-well format, the IncuCyte scratch system was used to generate simultaneous rectangular ‘wounds’ with a defined area in HSC3 and Ca127 cell layers. […] Images of cells moving within the wound area were taken by the automated Incu-Cyte system over intervals of 2 hr (HSC3) or 3 hr (Ca127). Migration was calculated as percent of cell confluence within the wound, starting at 0% confluence (i.e., no cells in the wound area). When the wound was completely filled with migrating cells, this was calculated at 100% confluence.

Ca127 cells [5] = experiment: Cell migration (IncuCyte wound-healing) assay, Ca127; type: cell-based, Human; settings: 500 nM each
Experimental: as §3

[6] = test system: EGFR signaling components in HSC3 cells; experiment: Western blot analysis of EGFR signaling components, HSC3; type: cell-based, Human; settings: 500 nM each, 6 h
From the text: (§4) Immunoblotting. […] SDS-PAGE separated proteins were transferred to PVDF membrane and the membrane blocked in 5% milk.

[7] = test system: EGFR signaling components in Ca127 cells; experiment: Western blot analysis of EGFR signaling components, Ca127; type: cell-based, Human; settings: 500 nM each, 6 h
From the text: as §4

SMILES | G1 (Cal27 cells) | G2 (Cal27 cells) | S (Cal27 cells) | SubG1 (Cal27 cells) | G1 (HSC3 cells [1]) | G2 (HSC3 cells [1]) | S (HSC3 cells [1]) | SubG1 (HSC3 cells [1]) | cell growth (in words) (HSC3 cells [2]) | cell growth (in words) (Ca127 cells [3]) | further results
C#Cc1cccc(Nc2ncnc3cc(OCCOC)c(OCCOC)cc23)c1 [Erlotinib] |  |  |  |  |  |  |  |  |  |  | response rate (oral cancer patients; oral cancer patients with stage I disease): 10-15%; response (in words) (oral cancer patients; patients with stages II, III, and IV disease): failed to respond entirely
COc1cc2ncnc(Nc3ccc(F)c(Cl)c3)c2cc1OCCCN1CCOCC1 [Gefitinib] | 90.79 % of cell distribution | 4.44 % of cell distribution | 2.59 % of cell distribution | 2.53 % of cell distribution | 95.60 % of cell distribution | 1.87 % of cell distribution | 0.0 % of cell distribution | 2.03 % of cell distribution | significant anti-proliferative effects | significant anti-proliferative effects | tumor volume compared to control (HSC3 mouse xenografts; day 6, Gefitinib 100 mg/kg daily, oral gavage): 57 % of control; cell migration (in words) (HSC3 cells [4]): significant reduction from 2 to 8 h; cell migration (in words) (Ca127 cells [5]): significantly reduced at 9 h and remained significantly low for 48 h
COc1cc(N2CCC(N3CCN(C)CC3)CC2)ccc1Nc1ncc(Cl)c(Nc2ccccc2S(=O)(=O)C(C)C)n1 [TAE684] | 88.11 % of cell distribution | 8.40 % of cell distribution | 2.25 % of cell distribution | 1.68 % of cell distribution | 95.23 % of cell distribution | 3.73 % of cell distribution | 0.84 % of cell distribution | 0.34 % of cell distribution | significant anti-proliferative effects | significant anti-proliferative effects | tumor growth (in words) (HSC3 mouse xenografts; daily oral gavage for 14 days, TAE684 10 mg/kg, Gefitinib 100 mg/kg): unaffected; also recorded: No change in tumor growth; mean tumor volume (HSC3 mouse xenografts; day 14, daily oral gavage, TAE684 10 mg/kg, Gefitinib 100 mg/kg, vehicle control 431 mm^3): 381 mm^3; activation of STAT3 (p-STAT3 to total STAT3) (in words) [6]: induced; phospho-AKT / AKT activation (in words) [6]: significantly reduced; activation of STAT3 (p-STAT3 to total STAT3) (in words) [7]: slightly induced; phospho-AKT / AKT activation (in words) [7]: significantly decreased
